Assays:
[1] = target: T1, RORγ ligand binding domain (Homo sapiens, UniProt P51449); assay: RORγ co-factor recruitment assay (FRET); assay type: biochemical; parameters: made in house; host or cells: E. coli BL21DE3 Star; conditions: inhibition of recruitment of SRC-1 peptide (NCOA1_677-700) to hRORγ LBD, HTRF read-out
Source text: RORγ Co-Factor Recruitment Assay A high throughput coactivator binding assay for the identification of inverse agonists of the recruitment of peptide SRC-1 (NCOA1_677-_700) to the RORγ ligand binding domain was established. The ligand binding domain (LBD) of human RORγ was expressed in E. coli (BL21DE3 Star) as a fusion protein: N-6×HN-MBP-Avi-TCS-hRORγLBD(P260-K518) subcloned into pET24a(+). The LBD (P260-K518) is underlined in the protein sequence: The assay was run in black 384 well plates (Greiner cat no: 784900). Various concentrations of test ligands in 0.1 microlitres DMSO were dispensed to assay plates using an Echo acoustic dispenser. Two pre-mixes were prepared and incubated for 1 h at room temp in the dark. Pre-mix 1 comprised 100 nM Protein (Biotinylated HN-Avi-MBP-TCS-hRORγ (258-518)) and 60 nM Streptavidin APC in assay buffer, 50 mM MOPS pH7.4, 50 mM KF, 0.003% (w/v) CHAPS, 10 mM DTT and 0.01% (w/v) BSA and pre-mix 2 comprised 160 nM biotinylated SRC-1 peptide (NCOA1-677-700) and 20 nM Europium-W8044 labelled Streptavidin in assay buffer. Five microlitres of pre-mix 2 was dispensed to assay plates containing 0.1 microlitres of test compound and was incubated for 15 min prior to adding five microlitres of pre-mix 1. Plates were incubated at rt for 1 hour in the dark, prior to reading in a Pherastar multi-mode plate reader using HTRF filter set (ex 320, em 612 and 665). The FRET signal at 665 nm was divided by the signal at 612 nm and multiplied by 10,000 to generate a signal ratio value for each well. The raw data was transformed to % effect using the equation: Compound % effect=100*[(X−min)/(max−min)], where X represents the normalized value for the compound based on the Min (vehicle) and Max (reference compound) inhibition control. The concentration of test ligand that inhibited the activity by 50% (i.e., the IC50) was calculated by plotting the % effect versus test ligand concentration and fitting the data using the Genedata Screener Smart fit algorithm.

[2] = target: T1, RORγ ligand binding domain; assay: RORγ radioligand competition binding assay (SPA); conditions: competition with tritiated 2-(4-(ethylsulfonyl)phenyl)-N-(4-(2-(methoxymethyl)phenyl)thiophen-2-yl)acetamide (25 nM), hRORγ LBD
Source text: RORγ Radioligand Competition Binding Assay The aim of this assay is to identify compounds which bind to the RORγ ligand binding domain, by competing with tritiated 2-(4-(ethylsulfonyl)phenyl)-N-(4-(2-(methoxymethyl)phenyl)thiophen-2-yl)acetamide. Human RORγ (Ligand Binding Domain (RORγ LBD) was expressed in E. coli (BL21DE3 Star) as a fusion protein: N-6×HN-Avi-GST-TCS-hRORγ LBD (S258-K518) subcloned into pET24a(+). The LBD (258-518) is underlined in the protein sequence: The scintillation proximity assay (SPA) was run in white polystyrene flat-bottom 384-well plates (Greiner, cat. No. 781075). Assays were carried out in 40 μl reaction volumes. Various concentrations of test ligands in 0.4 microlitres of DMSO were added to assay plates using an acoustic liquid dispenser. 4 nM purified N-(HN)6-GST-TCS-hRORγ (258-518) was mixed with 40 micrograms Yttrium oxide (YOx) glutathione SPA imaging beads in assay buffer (20 mM Tris, 150 mM NaCl, 10% Glycerol, 0.25% CHAPS, 1 mM TCEP) prior to adding 30 microlitres to test ligands. Assay plates were incubated for one hour at room temperature before adding 10 microlitres tritiated 2-(4-(ethylsulfonyl)phenyl)-N-(4-(2-(methoxymethyl)phenyl)thiophen-2-yl)acetamide to test plates in assay buffer (final concentration, 25 nM). Test plates were incubated for 16 hours and read using a LEADseeker Multimodality imaging instrument. The raw data was analysed and IC50 and Ki values for the compounds were calculated using Genedata Screener software. Raw data was transformed to % effect using equation 1: Compound % effect=100*[(X−min)/(max−min)], where X represents the normalized value for the compound based on the Min (vehicle) and Max (reference compound) inhibition controls. The concentration of test ligand that inhibited radioligand binding by 50% (i.e., the IC50) was calculated by plotting the % effect versus test ligand concentration and fitting the data using the Genedata Screener Smart fit algorithm. Ki is calculated from the IC50 value using the equation Ki=IC50/1+[L]/Kd) where [L]=25 nmol/L and Kd=17 nmol/L

IC50 [1]	IC50 [2]	Compound
39.8 nM	10 nM	CS(=O)(=O)c1ccc2c(c1)CN(C=O)C2C(=O)Nc1ccc(C(C#N)(C(F)(F)F)C(F)(F)F)cc1 (centres unmarked) [Example 6, N-[4-(2-Cyano-1,1,1,3,3,3-hexafluoropropan-2-yl)phenyl]-2-formyl-5-(methylsulfonyl)-2,3-dihydro-1H-isoindole-1-carboxamide]
50.1 nM	12.6 nM	COC(=O)N1Cc2cc(S(C)(=O)=O)ccc2C1C(=O)Nc1ccc(C(C#N)(C(F)(F)F)C(F)(F)F)cc1 (centres unmarked) [Example 7, Methyl 1-{[4-(2-cyano-1,1,1,3,3,3-hexafluoropropan-2-yl)phenyl]carbamoyl}-5-(methylsulfonyl)-1,3-dihydro-2H-isoindole-2-carboxylate]
50.1 nM	12.6 nM	COCC(=O)N1Cc2cc(S(C)(=O)=O)ccc2C1C(=O)Nc1ccc(C(C#N)(C(F)(F)F)C(F)(F)F)cc1 (centres unmarked) [Example 8, N-[4-(2-Cyano-1,1,1,3,3,3-hexafluoropropan-2-yl)phenyl]-2-(methoxyacetyl)-5-(methylsulfonyl)-2,3-dihydro-1H-isoindole-1-carboxamide]
100 nM	10 nM	CS(=O)(=O)c1ccc2c(c1)CN(C(=O)CCC(=O)O)C2C(=O)Nc1ccc(C(C#N)(C(F)(F)F)C(F)(F)F)cc1 (centres unmarked) [Example 9, 4-[1-{[4-(2-Cyano-1,1,1,3,3,3-hexafluoropropan-2-yl)phenyl]carbamoyl}-5-(methylsulfonyl)-1,3-dihydro-2H-isoindol-2-yl]-4-oxobutanoic acid]
79.4 nM	25.1 nM	CS(=O)(=O)c1ccc2c(c1)CN(C(=O)CN)C2C(=O)Nc1ccc(C(C#N)(C(F)(F)F)C(F)(F)F)cc1 (centres unmarked) [Example 10, N-[4-(2-Cyano-1,1,1,3,3,3-hexafluoropropan-2-yl)phenyl]-2-glycyl-5-(methylsulfonyl)-2,3-dihydro-1H-isoindole-1-carboxamide]
158 nM	25.1 nM	CS(=O)(=O)c1ccc2c(c1)CN(C(=O)CCN)C2C(=O)Nc1ccc(C(C#N)(C(F)(F)F)C(F)(F)F)cc1 (centres unmarked) [Example 11, 2-(3-Aminopropanoyl)-N-[4-[1-cyano-2,2,2-trifluoro-1-(trifluoromethyl)ethyl]phenyl]-5-methylsulfonyl-isoindoline-1-carboxamide]
39.8 nM	6.31 nM	CCCNC(c1ccc(NC(=O)C2c3ccc(S(C)(=O)=O)cc3CN2C(C)=O)cc1)(C(F)(F)F)C(F)(F)F (centres unmarked) [Example 16, 2-Acetyl-N-{4-[1,1,1,3,3,3-hexafluoro-2-(propylamino)propan-2-yl]phenyl}-5-(methylsulfonyl)-2,3-dihydro-1H-isoindole-1-carboxamide]
50.1 nM	31.6 nM	CNC(c1ccc(NC(=O)C2c3ccc(S(C)(=O)=O)cc3CN2C(C)=O)cc1)(C(F)(F)F)C(F)(F)F (centres unmarked) [Example 24, 2-Acetyl-N-{4-[1,1,1,3,3,3-hexafluoro-2-(methylamino)propan-2-yl]phenyl}-5-(methylsulfonyl)-2,3-dihydro-1H-isoindole-1-carboxamide]
39.8 nM	6.31 nM	CC(=O)N1Cc2cc(S(C)(=O)=O)ccc2C1C(=O)Nc1ccc(C(N(C)C)(C(F)(F)F)C(F)(F)F)cc1 (centres unmarked) [Example 25, 2-Acetyl-N-{4-[2-(dimethylamino)-1,1,1,3,3,3-hexafluoropropan-2-yl]phenyl}-5-(methylsulfonyl)-2,3-dihydro-1H-isoindole-1-carboxamide]
1000 nM	631 nM	CC(=O)N1Cc2cc(S(C)(=O)=O)ccc2C1C(=O)Nc1ccc(C(NCCS(C)(=O)=O)(C(F)(F)F)C(F)(F)F)cc1 (centres unmarked) [Example 26, 2-Acetyl-N-[4-(1,1,1,3,3,3-hexafluoro-2-{[2-(methylsulfonyl)ethyl]amino}propan-2-yl)phenyl]-5-(methylsulfonyl)-2,3-dihydro-1H-isoindole-1-carboxamide]
> 31600 nM	7.94 nM	CC(=O)N1Cc2cc(S(C)(=O)=O)ccc2C1C(=O)Nc1ccc(C(NCCOC(C)C)(C(F)(F)F)C(F)(F)F)cc1 (centres unmarked) [Example 27, 2-Acetyl-N-[4-(1,1,1,3,3,3-hexafluoro-2-{[2-(propan-2-yloxy)ethyl]amino}propan-2-yl)phenyl]-5-(methylsulfonyl)-2,3-dihydro-1H-isoindole-1-carboxamide]
39.8 nM	7.94 nM	COC(c1ccc(NC(=O)C2c3ccc(S(C)(=O)=O)cc3CN2C(C)=O)cc1)(C(F)(F)F)C(F)(F)F (centres unmarked) [Example 28, 2-Acetyl-N-[4-(1,1,1,3,3,3-hexafluoro-2-methoxypropan-2-yl)phenyl]-5-(methylsulfonyl)-2,3-dihydro-1H-isoindole-1-carboxamide]
100 nM	39.8 nM	CC(=O)N1Cc2cc(S(C)(=O)=O)ccc2C1C(=O)Nc1ccc(C(n2ccnn2)(C(F)(F)F)C(F)(F)F)cc1 (centres unmarked) [Example 29, 2-Acetyl-N-{4-[1,1,1,3,3,3-hexafluoro-2-(1H-1,2,3-triazol-1-yl)propan-2-yl]phenyl}-5-(methylsulfonyl)-2,3-dihydro-1H-isoindole-1-carboxamide]
> 31600 nM	398 nM	CC(=O)N1Cc2cc(S(C)(=O)=O)ccc2C1C(=O)Nc1ccc(C(CC(=O)N2CC(C)(F)C2)(C(F)(F)F)C(F)(F)F)cc1 (centres unmarked) [Example 39, 2-Acetyl-5-(methylsulfonyl)-N-{4-[1,1,1-trifluoro-4-(3-fluoro-3-methylazetidin-1-yl)-4-oxo-2-(trifluoromethyl)butan-2-yl]phenyl}-2,3-dihydro-1H-isoindole-1-carboxamide]
> 31600 nM	12.6 nM	CC(=O)N1Cc2cc(S(C)(=O)=O)ccc2C1C(=O)Nc1ccc(C(CC(=O)OC(C)C)(C(F)(F)F)C(F)(F)F)cc1 (centres unmarked) [Example 40, Propan-2-yl 3-[4-({[2-acetyl-5-(methylsulfonyl)-2,3-dihydro-1H-isoindol-1-yl]carbonyl}amino)phenyl]-4,4,4-trifluoro-3-(trifluoromethyl)butanoate]
> 31600 nM	15.8 nM	CC(=O)N1Cc2cc(S(C)(=O)=O)ccc2C1C(=O)Nc1ccc(C(CC(=O)OC(C)(C)C)(C(F)(F)F)C(F)(F)F)cc1 (centres unmarked) [Example 44, tert-Butyl 3-[4-({[2-acetyl-5-(methylsulfonyl)-2,3-dihydro-1H-isoindol-1-yl]carbonyl}amino)phenyl]-4,4,4-trifluoro-3-(trifluoromethyl)butanoate]
